Assay results published in ChEMBL document CHEMBL1201862, “PubChem BioAssay data set” (2004).
The source made the active and inactive calls.

Key:
[1] = target: T1, Calpain-2 catalytic subunit (Sus scrofa, UniProt P43367); assay: m-calpain protease blockers, concentration series – biochemical, fluorogenic peptide substrate, dose response (AID 1420); type: functional
T1 sequence (P43367 whole entry): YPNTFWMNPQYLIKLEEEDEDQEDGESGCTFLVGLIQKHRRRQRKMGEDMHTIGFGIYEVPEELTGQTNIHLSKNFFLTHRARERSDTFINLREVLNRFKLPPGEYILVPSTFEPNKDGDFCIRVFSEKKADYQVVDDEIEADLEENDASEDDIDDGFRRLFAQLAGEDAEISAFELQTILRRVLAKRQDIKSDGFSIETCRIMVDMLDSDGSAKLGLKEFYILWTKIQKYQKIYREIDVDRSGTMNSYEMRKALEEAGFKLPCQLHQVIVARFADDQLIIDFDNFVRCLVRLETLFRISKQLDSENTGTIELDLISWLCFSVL

[2] = target: T2, Mannose-6-phosphate isomerase (Homo sapiens, UniProt P34949); assay: MPI inhibition at elevated mannose 6-phosphate – biochemical, fluorescence intensity, high mannose 6-phosphate, primary screen (AID 1220)
T2 sequence (P34949 whole entry): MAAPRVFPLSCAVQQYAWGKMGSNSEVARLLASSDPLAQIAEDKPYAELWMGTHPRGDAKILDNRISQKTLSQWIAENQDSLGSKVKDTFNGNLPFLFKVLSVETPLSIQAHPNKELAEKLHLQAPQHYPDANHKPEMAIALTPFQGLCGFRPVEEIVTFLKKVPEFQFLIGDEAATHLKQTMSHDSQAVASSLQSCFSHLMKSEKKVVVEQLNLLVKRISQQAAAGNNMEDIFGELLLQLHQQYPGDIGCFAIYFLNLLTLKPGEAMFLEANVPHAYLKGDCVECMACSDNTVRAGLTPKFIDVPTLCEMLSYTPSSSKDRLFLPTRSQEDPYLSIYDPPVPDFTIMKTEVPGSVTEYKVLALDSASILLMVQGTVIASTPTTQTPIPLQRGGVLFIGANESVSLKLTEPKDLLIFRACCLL

Caspase-3 = target: T3, Caspase-3 (Homo sapiens, UniProt P42574); type: functional;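 note: Dose-response selectivity test against caspase-3 for candidate inhibitors of sentrin-specific proteases (SENPs)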
T3 sequence (P42574 whole entry): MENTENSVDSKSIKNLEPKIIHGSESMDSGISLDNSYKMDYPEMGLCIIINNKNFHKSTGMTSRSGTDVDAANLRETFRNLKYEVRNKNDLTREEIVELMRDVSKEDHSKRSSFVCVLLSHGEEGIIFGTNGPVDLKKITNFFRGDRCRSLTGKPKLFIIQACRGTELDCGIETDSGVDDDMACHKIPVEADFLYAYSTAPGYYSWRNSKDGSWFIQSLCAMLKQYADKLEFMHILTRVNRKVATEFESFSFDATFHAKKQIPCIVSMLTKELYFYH

[3] = target: T4, Sentrin-specific protease 7 (Homo sapiens, UniProt Q9BQF6); type: functional;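 note: Luminescence-based dose-response confirmation of ultra-high-throughput screening hits, measuring inhibition of SENP7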
T4 sequence (Q9BQF6 whole entry): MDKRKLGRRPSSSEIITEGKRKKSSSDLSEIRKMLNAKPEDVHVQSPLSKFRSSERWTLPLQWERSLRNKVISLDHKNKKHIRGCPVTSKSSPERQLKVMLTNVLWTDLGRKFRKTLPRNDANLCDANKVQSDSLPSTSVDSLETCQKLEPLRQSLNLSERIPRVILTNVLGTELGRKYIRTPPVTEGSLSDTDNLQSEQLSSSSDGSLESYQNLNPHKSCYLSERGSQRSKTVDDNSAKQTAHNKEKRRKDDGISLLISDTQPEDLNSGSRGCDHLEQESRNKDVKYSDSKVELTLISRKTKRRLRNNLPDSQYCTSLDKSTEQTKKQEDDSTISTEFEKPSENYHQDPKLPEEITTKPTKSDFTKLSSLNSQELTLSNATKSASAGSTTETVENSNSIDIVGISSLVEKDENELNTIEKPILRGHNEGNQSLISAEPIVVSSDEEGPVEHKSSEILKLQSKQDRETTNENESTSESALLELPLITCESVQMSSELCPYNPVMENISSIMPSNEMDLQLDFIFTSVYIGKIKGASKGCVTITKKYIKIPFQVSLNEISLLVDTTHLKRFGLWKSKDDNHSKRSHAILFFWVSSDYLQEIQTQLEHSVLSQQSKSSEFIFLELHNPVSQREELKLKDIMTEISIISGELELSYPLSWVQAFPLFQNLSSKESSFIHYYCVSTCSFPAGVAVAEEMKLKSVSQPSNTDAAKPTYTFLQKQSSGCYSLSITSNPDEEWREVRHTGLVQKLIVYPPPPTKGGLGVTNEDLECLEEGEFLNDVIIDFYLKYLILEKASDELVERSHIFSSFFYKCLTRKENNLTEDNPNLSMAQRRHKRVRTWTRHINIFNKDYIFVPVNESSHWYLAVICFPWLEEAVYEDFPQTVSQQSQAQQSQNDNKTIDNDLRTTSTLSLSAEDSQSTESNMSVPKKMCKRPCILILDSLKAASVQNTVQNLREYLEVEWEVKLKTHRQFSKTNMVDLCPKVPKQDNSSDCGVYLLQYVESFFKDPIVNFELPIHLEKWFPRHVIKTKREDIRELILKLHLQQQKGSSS

[4] = target: T5, Sentrin-specific protease 6 (Homo sapiens, UniProt Q9GZR1); type: functional;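 note: Luminescence-based dose-response confirmatory assay of SENP6 inhibition, following up an ultra-high-throughput screen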
T5 sequence (Q9GZR1 whole entry): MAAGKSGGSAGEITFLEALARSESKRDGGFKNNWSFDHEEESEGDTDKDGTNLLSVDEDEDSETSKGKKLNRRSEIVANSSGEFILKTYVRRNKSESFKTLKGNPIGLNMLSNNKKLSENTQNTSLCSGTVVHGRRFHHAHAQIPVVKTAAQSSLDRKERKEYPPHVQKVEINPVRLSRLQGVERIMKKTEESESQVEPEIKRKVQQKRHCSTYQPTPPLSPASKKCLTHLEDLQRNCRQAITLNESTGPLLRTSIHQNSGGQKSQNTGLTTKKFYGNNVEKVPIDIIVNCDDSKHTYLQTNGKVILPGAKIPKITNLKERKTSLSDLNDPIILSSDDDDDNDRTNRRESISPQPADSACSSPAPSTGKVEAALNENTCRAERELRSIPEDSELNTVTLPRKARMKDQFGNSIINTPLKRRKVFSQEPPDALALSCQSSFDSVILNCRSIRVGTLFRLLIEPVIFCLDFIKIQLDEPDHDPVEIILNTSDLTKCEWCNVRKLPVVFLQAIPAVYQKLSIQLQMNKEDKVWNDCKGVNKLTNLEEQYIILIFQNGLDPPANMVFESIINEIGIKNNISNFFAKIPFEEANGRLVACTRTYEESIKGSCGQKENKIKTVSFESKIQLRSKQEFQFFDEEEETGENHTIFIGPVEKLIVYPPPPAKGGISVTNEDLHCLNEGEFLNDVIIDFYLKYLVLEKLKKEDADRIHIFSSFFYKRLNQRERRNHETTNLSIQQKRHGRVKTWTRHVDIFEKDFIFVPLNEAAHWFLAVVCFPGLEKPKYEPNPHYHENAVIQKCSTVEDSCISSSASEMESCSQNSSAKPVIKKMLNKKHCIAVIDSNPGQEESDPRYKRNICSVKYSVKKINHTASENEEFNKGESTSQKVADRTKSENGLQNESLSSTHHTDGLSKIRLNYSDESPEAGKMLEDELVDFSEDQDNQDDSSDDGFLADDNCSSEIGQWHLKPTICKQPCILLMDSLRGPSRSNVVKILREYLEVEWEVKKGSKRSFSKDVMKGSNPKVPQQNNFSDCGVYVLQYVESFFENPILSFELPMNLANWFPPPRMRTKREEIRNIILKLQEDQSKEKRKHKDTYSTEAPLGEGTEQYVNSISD

[5] = target: T6, Sentrin-specific protease 8 (Homo sapiens, UniProt Q96LD8); type: functional;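 note: luminescence read-out of SENP8 inhibition, dose-response confirmation following an ultra-high-throughput screen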
T6 sequence (Q96LD8 whole entry): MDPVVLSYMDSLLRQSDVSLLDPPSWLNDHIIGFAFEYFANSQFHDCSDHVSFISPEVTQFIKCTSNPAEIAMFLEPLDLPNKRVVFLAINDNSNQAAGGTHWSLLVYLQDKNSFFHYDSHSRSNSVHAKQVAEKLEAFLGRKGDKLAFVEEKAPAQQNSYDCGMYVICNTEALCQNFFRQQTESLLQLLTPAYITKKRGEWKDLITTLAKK

[6] = target: FAD-linked sulfhydryl oxidase ALR (Homo sapiens, UniProt P55789); assay: ALR-catalysed DTT oxidation blockers – biochemical, H2O2 detection, luminescence, cherry-pick, dose response (AID 493248)
Sequence of FAD-linked sulfhydryl oxidase ALR (P55789 whole entry): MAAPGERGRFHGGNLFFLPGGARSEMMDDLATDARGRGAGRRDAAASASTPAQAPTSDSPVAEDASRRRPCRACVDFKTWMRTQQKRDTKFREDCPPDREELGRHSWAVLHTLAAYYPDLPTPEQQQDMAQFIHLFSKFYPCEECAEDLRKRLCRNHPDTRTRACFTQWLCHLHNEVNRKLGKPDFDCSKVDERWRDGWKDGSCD

[7] = target: T7, Rac GTPase-activating protein 1 (Homo sapiens, UniProt Q9H0H5); assay: blockers of MgcRacGAP-driven Rac1 GTP hydrolysis – biochemical, ADP Hunter fluorescence, primary and confirmatory, confirmation (AID 624330); type: functional
T7 sequence (Q9H0H5 whole entry): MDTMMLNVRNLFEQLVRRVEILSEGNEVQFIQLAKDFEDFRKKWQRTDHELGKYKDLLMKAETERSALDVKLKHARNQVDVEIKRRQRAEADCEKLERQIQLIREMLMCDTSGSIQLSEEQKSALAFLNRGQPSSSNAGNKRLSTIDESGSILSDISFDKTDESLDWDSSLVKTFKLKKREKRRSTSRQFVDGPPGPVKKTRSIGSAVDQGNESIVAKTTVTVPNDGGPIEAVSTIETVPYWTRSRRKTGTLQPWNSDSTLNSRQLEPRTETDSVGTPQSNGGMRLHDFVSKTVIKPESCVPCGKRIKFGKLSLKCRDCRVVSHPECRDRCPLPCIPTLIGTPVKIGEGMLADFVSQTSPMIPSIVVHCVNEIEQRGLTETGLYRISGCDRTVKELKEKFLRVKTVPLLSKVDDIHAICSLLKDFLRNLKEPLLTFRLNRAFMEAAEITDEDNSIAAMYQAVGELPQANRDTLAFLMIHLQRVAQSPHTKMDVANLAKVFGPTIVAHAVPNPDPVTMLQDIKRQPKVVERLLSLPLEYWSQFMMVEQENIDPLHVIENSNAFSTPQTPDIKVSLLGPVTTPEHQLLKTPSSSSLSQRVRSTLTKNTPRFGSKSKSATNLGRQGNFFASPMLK

[8] = NIH-3T3 fibroblast cytotoxicity, dose response, cytotoxicity control, cell-based, fluorescence, Alamar Blue, secondary assay (AID 2327); type: functional;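 note: NIH-3T3 mouse fibroblasts cultured with fluconazole at 8 µg/mL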
[9] = fluconazole-exposed Candida albicans growth modulators – fluorescence, retest, confirmation (AID 2467); type: functional, cell-based
[10] = target: T8, Polyadenylate-binding protein 1 (Homo sapiens, UniProt P11940); assay: MLLE binding blockers, Cy5 peptide tracer – biochemical, fluorescence polarization, Cy5-PAM2 peptide, secondary, miRNA deadenylation inhibitor project, dose response (AID 602260); type: functional; settings: read-out: IC50_Mean
T8 sequence (P11940 whole entry, the tested form may be a part): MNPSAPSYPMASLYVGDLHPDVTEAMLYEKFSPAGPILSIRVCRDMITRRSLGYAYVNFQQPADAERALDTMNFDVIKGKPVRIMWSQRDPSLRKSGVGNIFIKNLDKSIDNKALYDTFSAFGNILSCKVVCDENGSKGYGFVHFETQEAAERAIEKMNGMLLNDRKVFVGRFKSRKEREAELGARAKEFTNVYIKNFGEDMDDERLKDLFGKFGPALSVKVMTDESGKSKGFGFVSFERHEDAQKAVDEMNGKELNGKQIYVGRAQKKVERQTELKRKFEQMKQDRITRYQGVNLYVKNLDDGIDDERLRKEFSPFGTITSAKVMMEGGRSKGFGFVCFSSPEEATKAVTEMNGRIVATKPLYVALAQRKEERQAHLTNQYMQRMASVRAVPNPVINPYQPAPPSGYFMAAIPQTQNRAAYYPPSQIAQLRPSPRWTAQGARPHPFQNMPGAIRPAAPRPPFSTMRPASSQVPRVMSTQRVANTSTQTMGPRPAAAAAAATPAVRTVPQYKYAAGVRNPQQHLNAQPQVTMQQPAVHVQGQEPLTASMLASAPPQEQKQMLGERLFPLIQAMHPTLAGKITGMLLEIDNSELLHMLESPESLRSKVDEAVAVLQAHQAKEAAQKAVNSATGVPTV

[11] = target: T8, Polyadenylate-binding protein 1; assay: MLLE domain peptide-binding blockers, IC50 – biochemical, fluorescence polarization, FITC-PAM2 peptide, dose response (AID 602259); type: functional; settings: read-out: IC50_Mean
Paired box protein Pax-8 = Paired box protein Pax-8 (Homo sapiens, UniProt Q06710); assay: PAX8 transcriptional activity inhibition in RMG-I – RMG-I cells, luciferase, cherry-pick, dose response (AID 687027); type: functional, cell-based;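 note: luciferase reporter driven by Pax8 target thyroperoxidase promoter measured by SteadyGlo luminescence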
Sequence of Paired box protein Pax-8 (Q06710 whole entry): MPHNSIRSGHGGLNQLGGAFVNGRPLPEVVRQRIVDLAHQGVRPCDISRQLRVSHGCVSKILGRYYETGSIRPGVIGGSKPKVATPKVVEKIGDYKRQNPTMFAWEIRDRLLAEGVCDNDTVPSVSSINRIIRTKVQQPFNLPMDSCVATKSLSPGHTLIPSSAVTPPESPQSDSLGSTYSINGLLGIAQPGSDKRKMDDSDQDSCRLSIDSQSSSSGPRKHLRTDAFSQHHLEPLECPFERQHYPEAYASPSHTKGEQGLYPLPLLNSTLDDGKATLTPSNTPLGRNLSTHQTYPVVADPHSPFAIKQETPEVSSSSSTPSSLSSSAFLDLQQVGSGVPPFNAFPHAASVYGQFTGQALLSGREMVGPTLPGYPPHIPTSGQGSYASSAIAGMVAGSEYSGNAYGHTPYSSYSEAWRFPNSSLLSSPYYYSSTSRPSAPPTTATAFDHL

[12] = OVCAR-3 cell viability loss – plate reader, dry powder samples, PAX8 inhibitor project, dose response (AID 743044); type: functional, cell-based
[13] = P. falciparum Dd2 growth inhibitors, dose response, SYBR Green, cherry-picked samples (AID 1159567); type: functional, cell-based

CCOc1ccc(NC(=O)CCC(=O)n2nc(C)cc2C)cc1
IC50 [1]: < 0.4 µM (not active)

Cc1ccc(NCc2nc3ccccc3n2CCOc2ccccc2)cc1
IC50 [2]: > 50 µM (not active)

COc1ccc(-c2nc(NC(=O)CCNC(=O)c3ccco3)sc2C)cc1
IC50 [1]: 3.03 µM (not active)

Cc1ccc(N(CC(=O)Nc2cccc(C)c2)S(=O)(=O)c2cccc3nonc23)cc1
IC50 [1]: 1.1 µM (not active)

CN(C(S)=Nc1ccc(SC(F)F)cc1)c1ccc(O)cc1
IC50 [2]: > 50 µM (not active)

Cc1ccc2c(c1)CCCN2C(=O)c1ccc2c(c1)OCO2
IC50 [1]: > 50 µM (not active)

NC(=NOC(=O)c1ccc(Cl)cc1Cl)c1ccc(Cl)cc1
IC50 (Caspase-3): 35.6 µM (active) | IC50 [3]: 9.34 µM (active) | IC50 [4]: > 100 µM (inactive) | IC50 [5]: > 100 µM (inactive)

CN(c1ccc(O)cc1)c1nc(-c2cccnc2)cs1
AC50 [6]: 3.84 µM (active) | IC50 [7]: 17.5 µM (active)

O=C(O)CCC(=O)N1CCN(c2ccc(C(=O)c3ccc(F)cc3)cc2)CC1
IC50 [1]: > 50 µM (not active)

[O-][S+](N1CCc2ccccc21)C12CC3CC(CC(C3)C1)C2 (stereo not drawn)
IC50 [1]: 10.8 µM (not active)

Cc1ccc(NCc2ccc(O)c3ncccc23)cc1
EC50 [8]: > 160 µM (inconclusive) | EC50 [9]: > 38 µM (not active) | IC50 [2]: > 50 µM (not active)

Cc1ccc(C2SCC(=O)N2c2ccccc2)cc1 (stereo not drawn)
AC50 [6]: < 0.005 µM (active) | IC50 [10]: > 66 µM (inactive) | IC50 [11]: > 66 µM (inactive)

CSCc1ccc(C(=O)N2CCCC(Nc3ccc(F)cc3)C2)o1 (stereo not drawn)
AC50 [6]: 2.76 µM (active)

O=C(CCc1c[nH]c2ccccc12)NCCc1ccc(O)cc1
AC50 [6]: 7.62 µM (active) | IC50 [7]: 112 µM (active)

O=C(Cc1ccccc1)N1CC[C@H]2[C@H](CO)Nc3ccc(C4=CCCCC4)cc3[C@H]21
AC50 (Paired box protein Pax-8): 6.67 µM (active) | AC50 [12]: 51.3 µM (active)

C/C(=N\OCC(=O)Nc1ccc(Br)cc1)c1cccs1
IC50 [1]: > 50 µM (not active)

CC(=N\Nc1ccc(Cl)cc1)/C(=N/O)C(=O)Nc1ccccc1
AC50 [6]: 0.104 µM (active)

CCN(CC)c1ccc(/C=N/NC(=O)CC(C)C)cc1
AC50 [6]: 2.97 µM (active)

C/C(=N\Nc1ccc([N+](=O)[O-])cc1)c1ccc(O)cc1
EC50 [8]: > 150 µM (inactive) | EC50 [9]: > 38 µM (not active) | AC50 [6]: 0.136 µM (active)

COc1cccc(-c2ccc([C@@H]3[C@H](CO)N4CCCCN(C(=O)c5ccc(F)cc5)C[C@@H]34)cc2)c1
AC50 [13]: 5.39 µM (active)

C[C@H](CO)N1C[C@H](C)[C@H](CN(C)Cc2ccc(Oc3ccccc3)cc2)Oc2ccc(NS(=O)(=O)c3ccc(Cl)cc3)cc2CC1=O
AC50 [13]: 7.51 µM (active)
